Values joined by “and” are separate entries in the source; they are usually repeats but may differ in a detail not shown here. Identical values can stand only once. “Also recorded” adds a separate entry of the source. Like-named read-outs stand apart in the source and are kept apart here.
How the values were obtained:
HIV (SF2 virus) [1] = assay: HIV infectivity assay, SF2-infected H9 cells, p24 quantification; type: cell-based; settings: for OD1: replicates (1)-(3)
Protocol: The remaining wells were filled with sterile distilled water. The cell culture plates were incubated at 37° C. and 5% CO2. After four days the medium was changed, after eight days the medium was changed and the cells were collected. After 11 days, the infection was stopped, the cells were viewed in a 10× magnification microscope and 650 μl of each cell supernatant was collected and frozen at −80° C. for further analysis. After five more days, the supernatants were thawed and used in a conventional reverse transcriptase (RT) activity assay (e.g., Roche AMPLICOR MONITOR™) or a p24 quantification assay (e.g., Abbott Laboratories, Chicago). (See U.S. Pat. No. 6,258,932 and U.S. patent application Ser. No. 10/235,158, both of which are hereby expressly incorporated by reference in its entireties).
[…] The cells in the samples were counted and then centrifuged. The cells were then resuspended in 10 ml of RPMI 1640 (containing fetal calf serum) and either […] Metabolite X or 100 μM GPG-NH2. Uninfected control and untreated control samples were also included in the experiment. The samples were then incubated overnight at 37° C. at 5% CO2.
Then, the amount of p24 in the samples was analysed using a conventional p24 detection assay (see U.S. Pat. No. 6,258,932).
Three replicate samples (“replicates”) of uninfected samples and untreated samples were also included in the experiment as controls. The inhibition of HIV replication was monitored by quantifying the levels of p24 using a conventional detection kit.
Three replicates of unninfected samples and untreated samples were also included in the experiment as controls.

Sindbis virus = settings: read-out: Minimum inhibitory concentration Sindbis virus; Vero; reduces virus-induced cytopathogenicity by 50%
[2] = test system: Herpes simplex virus-1 (KOS); settings: read-out: Minimum inhibitory concentration Herpes simplex virus-1 (KOS); HEL; reduces virus-induced cytopathogenicity by 50%
HIV-1 (IIIB) [3] = test system: HIV-1 (IIIB)
HIV-1 (IIIB) [4] = assay: microbe, parasite or virus in culture
Procedure, shortened: (§1)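 MT-4, C8166 or CEM cells (4 to 5×10^5 cells/ml) infected at ~100 CCID50/ml, incubated with 5-fold compound dilutions at 37 °C for 4–5 days. Read-out: microscopic giant-cell formation in CEM and C8166 cultures; viable-cell count by trypan blue in MT-4.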

HIV-2(ROD) = assay: microbe, parasite or virus in culture
Procedure, shortened: as §1

HIV (SF2 virus) [5] = assay: HIV infectivity assay, SF2-infected H9 cells, reverse transcriptase (RT) quantification in supernatant; type: cell-based; settings: for OD405-620 / OD405-620 - Blank / RT mean / RT: fetal calf serum; for RT mean: mean of replicates; for RT: single replicate
Vaccinia virus = settings: read-out: Minimum inhibitory concentration Vaccinia virus; HEL; reduces virus-induced cytopathogenicity by 50%
HIV-2 (ROD) = assay: microbe, parasite or virus in culture; type: cell-based; settings: CEM cell cultures, syncytia formation, Table 1; read-out: EC50 HIV-2 ROD
Procedure, shortened: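 CEM, C8166 or MT-4 cells (4 to 5×10^5 cells/ml) infected with HIV-2 ROD at ~100 CCID50/ml, then incubated with 5-fold compound dilutions at 37 °C for 4–5 days. Giant cell formation scored microscopically in CEM and C8166 cultures; MT-4 viability counted by trypan blue exclusion.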

Parainfluenza-3 virus = settings: read-out: Minimum inhibitory concentration Parainfluenza-3 virus; Vero; reduces virus-induced cytopathogenicity by 50%

NCC(N)=O [G-NH2, glycinamide]
OD1 (HIV (SF2 virus) [1]; 50 μM, fetal calf serum): 0.182 and 0.105 and 0.319
conc p24 (HIV (SF2 virus) [1]; 50 μM, human serum): 714.23 ng/mL and 653.27 ng/mL and 773.51 ng/mL
OD2 (HIV (SF2 virus) [1]; 100 μM, fetal calf serum): 0.075 and 0.069 and 0.071
conc p24 (HIV (SF2 virus) [1]; 100 μM, fetal calf serum): 0.09 ng/mL and 0.08 ng/mL
mean OD (HIV (SF2 virus) [1]; 100 μM, fetal calf serum): 0.077 and 0.070 and 0.074
mean OD - blank (HIV (SF2 virus) [1]; 100 μM, fetal calf serum): 0.035 and 0.028 and 0.032
OD1 (HIV (SF2 virus) [1]; 100 μM, fetal calf serum): 0.078 and 0.071 and 0.077
conc p24 (HIV (SF2 virus) [1]; 100 μM, human serum): 780.21 ng/mL and 785.24 ng/mL and 876.34 ng/mL
inhibition of HIV replication, accumulation of p24 (HIV (SF2 virus) [1]; human serum): unable to inhibit HIV replication in human serum
anti-HIV activity in the presence of IlePyr (HIV-1; 200 and 500 μM IlePyr, in words): fully preserved its anti-HIV activity
EC50 (HIV-1; CEM cell cultures, presence of 200 and 500 μM of IlePyr): 35 to 43 µM
EC50 (Sindbis virus): > 2000 µM
EC50 [2]: > 2000 µM
ability to inhibit the replication of HIV (HIV-1 (IIIB) [3]; G-NH2 in medium with heat inactivated serum (10% fetal bovine serum, 95° C., 30 minutes)): lost its ability to inhibit the replication of HIV
inhibition of replication of HIV (HIV-1 (IIIB) [3]; boiled fetal bovine serum or human serum samples, results the experiments will show): does not
EC50 (HIV-1 (IIIB) [3]; read-out: 50% effective concentration, HIV replication in CEM cell cultures): ~30 µM
EC50 (HIV-1 (IIIB) [3]; read-out: EC50 (CEM) HIV-1 (IIIB), Table 19): 25 ± 7.1 µM
EC50 (HIV-1 (IIIB) [3]; read-out: EC50 (CEM) HIV-1(IIIB), Table 20): 25 ± 7.1 µM
EC50 (HIV-1 (IIIB) [3]; read-out: EC50 HIV-1 IIIB, CEM cell cultures, syncytia formation, Table 1): 32 ± 7.6 µM
EC50 (HIV-1 (IIIB) [3]; read-out: EC50 against HIV-1(IIIB), CEM cell cultures, Table 2): ~21.3 µM
EC50 (HIV-1 (IIIB) [3]; read-out: EC50 against HIV-1(IIIB), CEM cell cultures, Table 2, listed as Glycinamide): 21.3 ± 16.3 µM
EC50 (HIV-1 (IIIB) [4]; read-out: EC50 (C8166) HIV-1 (IIIB), Table 19): 150 µM
EC50 (HIV-1 (IIIB) [4]; read-out: EC50 (C8166) HIV-1 (IIIB), Table 20): 150 µM
EC50 (HIV-1 (IIIB) [4]; read-out: EC50 (MT-4) HIV-1 (IIIB), Table 19): > 500 µM
EC50 (HIV-1 (IIIB) [4]; read-out: EC50 (MT-4) HIV-1(IIIB), Table 20, related set of experiments): > 500 µM
EC50 (HIV-2(ROD); read-out: EC50 (C8166) HIV-2 (ROD), Table 19): 150 µM
EC50 (HIV-2(ROD); read-out: EC50 (C8166) HIV-2 (ROD), Table 20): 150 µM
EC50 (HIV-2(ROD); read-out: EC50 (MT-4) HIV-2 (ROD), Table 19): > 500 µM
EC50 (HIV-2(ROD); read-out: EC50 (MT-4) HIV-2 (ROD), Table 20): > 500 µM
OD405-620 (HIV (SF2 virus) [5]; 0.5 μM): 0.871 and 0.896 and 0.908
OD405-620 - Blank (HIV (SF2 virus) [5]; 0.5 μM): 0.845 and 0.87 and 0.882
RT mean (HIV (SF2 virus) [5]; 0.5 μM): 9152 pg/mL
RT (HIV (SF2 virus) [5]; 0.5 μM): 8927 pg/mL and 9199 pg/mL and 9329 pg/mL
OD405-620 (HIV (SF2 virus) [5]; 1 μM): 0.563 and 0.672 and 0.712
OD405-620 - Blank (HIV (SF2 virus) [5]; 1 μM): 0.537 and 0.646 and 0.686
RT mean (HIV (SF2 virus) [5]; 1 μM): 6514 pg/mL
RT (HIV (SF2 virus) [5]; 1 μM): 5579 pg/mL and 6764 pg/mL and 7199 pg/mL
OD405-620 (HIV (SF2 virus) [5]; 2 μM): 0.868 and 0.903 and 0.528
OD405-620 - Blank (HIV (SF2 virus) [5]; 2 μM): 0.842 and 0.877 and 0.502
RT mean (HIV (SF2 virus) [5]; 2 μM): 7789 pg/mL
RT (HIV (SF2 virus) [5]; 2 μM): 8895 pg/mL and 9275 pg/mL and 5199 pg/mL
OD405-620 (HIV (SF2 virus) [5]; 4 μM): 0.781 and 0.493 and 0.539
OD405-620 - Blank (HIV (SF2 virus) [5]; 4 μM): 0.755 and 0.467 and 0.513
RT mean (HIV (SF2 virus) [5]; 4 μM): 6029 pg/mL
RT (HIV (SF2 virus) [5]; 4 μM): 7949 pg/mL and 4818 pg/mL and 5318 pg/mL
OD405-620 (HIV (SF2 virus) [5]; 8 μM): 0.274 and 0.302 and 0.332
OD405-620 - Blank (HIV (SF2 virus) [5]; 8 μM): 0.248 and 0.276 and 0.306
RT mean (HIV (SF2 virus) [5]; 8 μM): 2750 pg/mL
RT (HIV (SF2 virus) [5]; 8 μM): 2438 pg/mL and 2742 pg/mL and 3068 pg/mL
OD405-620 (HIV (SF2 virus) [5]; 16 μM): 0.563 and 0.861 and 0.902
OD405-620 - Blank (HIV (SF2 virus) [5]; 16 μM): 0.537 and 0.835 and 0.876
RT mean (HIV (SF2 virus) [5]; 16 μM): 158 pg/mL
RT (HIV (SF2 virus) [5]; 16 μM): 112 pg/mL and 176 pg/mL and 185 pg/mL
OD405-620 (HIV (SF2 virus) [5]; 32 μM): 0.141 and 0.155
OD405-620 - Blank (HIV (SF2 virus) [5]; 32 μM): 0.115 and 0.129
RT mean (HIV (SF2 virus) [5]; 32 μM): 21 pg/mL
RT (HIV (SF2 virus) [5]; 32 μM): 20 pg/mL and 23 pg/mL
inhibition of HIV replication, reverse transcriptase (RT) activity (HIV (SF2 virus) [5]; cultures containing boiled fetal calf serum): unable to inhibit replication of HIV; also recorded: did not
EC50 (Vaccinia virus): > 2000 µM
EC50 (HIV-2 (ROD)): 35 ± 8.7 µM
EC50 (Parainfluenza-3 virus): > 2000 µM
